Assay results reported in US20210007356A1, “IMIDE DERIVATIVE AND FUNGICIDE CONTAINING SAID DERIVATIVE AS ACTIVE INGREDIENT” (HOKKO CHEMICAL INDUSTRY CO., LTD., priority 2018, published 2021).
Like-named read-outs stand apart in the source and are kept apart here.

Tests used:
[1] = tested on: barley powdery mildew fungus (Erysiphe graminis); assay: Test Example 2: control effect against barley powdery mildew by foliage application; type: in vivo; conditions: wettable powder diluted to 100 ppm, 10 mL per pot foliage spray on barley; inoculated day after; 7 days after inoculation
[2] = tested on: rice blast fungus (Pyricularia grisea); type: in vivo; conditions: flowable diluted to 100 ppm, 10 mL per pot foliage spray on paddy rice; inoculated day after; 7 days after inoculation
[3] = tested on: rice sheath blight fungus (Thanatephorus cucumeris); assay: Test Example 10: control effect against rice sheath blight by water surface application (flowable formulation); conditions: flowable 1,000 ppm, 1 mL dripped in paddy water, inoculated after 1 week, 7 days after inoculation
[4] = tested on: rice sheath blight fungus (Thanatephorus cucumeris); assay: Test Example 6: control effect against rice sheath blight by box treatment (flowable formulation); conditions: flowable 5,000 ppm, 50 mL irrigation of nursery box, paddy rice; inoculated after 3 weeks; 7 days after inoculation
[5] = tested on: rice blast fungus (Pyricularia grisea); type: in vivo; conditions: flowable 1,000 ppm, 1 mL dripped in paddy water, inoculated after 1 week, 7 days after inoculation
[6] = tested on: rice blast fungus (Pyricularia grisea); type: in vivo; conditions: 5 g of granule on nursery box, paddy rice; inoculated after 3 weeks; 7 days after inoculation
[7] = tested on: rice blast fungus (Pyricularia grisea); type: in vivo; conditions: flowable 5,000 ppm, 50 mL irrigation of nursery box, paddy rice; inoculated after 3 weeks; 7 days after inoculation
[8] = tested on: rice sheath blight fungus (Thanatephorus cucumeris); assay: Test Example 8: control effect against rice sheath blight by box treatment (granule); conditions: 5 g of granule on nursery box, paddy rice; inoculated after 3 weeks; 7 days after inoculation

Compound: Cc1nn(C)c(F)c1C(=O)N(C(=O)c1scnc1C(F)(F)F)c1ccccc1C(C)CC(C)C (stereo not shown) [1-336]
- evaluation value of control effect (from control value, lesion area percentage) [1]: 4
- evaluation value of control effect (from control value, number of lesions) [2]: 4

Compound: Cn1cc(C(=O)N(C(=O)c2scnc2C(F)(F)F)c2ccccc2-c2cc(F)c(F)c(F)c2)c(C(F)F)n1 [1-371]
- evaluation value of control effect (from control value, number of lesions) [2]: 4

Compound: Cc1nc(C(F)F)c(C(=O)N(C(=O)c2c(C(F)F)nn(C)c2Cl)c2ccccc2C(C)CC(C)C)s1 (stereo not shown) [7-272]
- evaluation value of control effect (from control value, lesion area percentage) [1]: 4
- evaluation value of control effect (from control value, number of lesions) [2]: 4

Compound: Cc1nnsc1C(=O)N(C(=O)c1cccnc1C(F)F)c1ccccc1C(C)CC(C)C (stereo not shown) [13-10]
- evaluation value of control effect (from control value, lesion height) [3]: 5
- evaluation value of control effect (from control value, lesion area percentage) [1]: 5
- evaluation value of control effect (from control value, lesion height) [4]: 5
- evaluation value of control effect (from control value, number of lesions) [5]: 5
- evaluation value of control effect (from control value, number of lesions) [6]: 5
- evaluation value of control effect (from control value, number of lesions) [7]: 5
- evaluation value of control effect (from control value, lesion height) [8]: 5

Compound: CC(C)CC(C)c1ccccc1N(C(=O)c1cccnc1C(F)F)C(=O)c1cccc2nnsc12 (stereo not shown) [13-16]
- evaluation value of control effect (from control value, lesion height) [3]: 5
- evaluation value of control effect (from control value, lesion area percentage) [1]: 4
- evaluation value of control effect (from control value, lesion height) [4]: 5
- evaluation value of control effect (from control value, number of lesions) [5]: 5
- evaluation value of control effect (from control value, number of lesions) [6]: 5
- evaluation value of control effect (from control value, number of lesions) [7]: 5
- evaluation value of control effect (from control value, lesion height) [8]: 5

Compound: CC(C)CC(C)c1ccccc1N(C(=O)c1cccnc1C(F)F)C(=O)c1onc(Cl)c1Cl (stereo not shown) [13-49]
- evaluation value of control effect (from control value, lesion height) [3]: 5
- evaluation value of control effect (from control value, lesion area percentage) [1]: 5
- evaluation value of control effect (from control value, lesion height) [4]: 5
- evaluation value of control effect (from control value, number of lesions) [5]: 5
- evaluation value of control effect (from control value, number of lesions) [6]: 5
- evaluation value of control effect (from control value, number of lesions) [7]: 5
- evaluation value of control effect (from control value, lesion height) [8]: 5

Compound: CC(C)CC(C)c1ccccc1N(C(=O)c1cccnc1Cl)C(=O)c1snc(Cl)c1Cl (stereo not shown) [13-53]
- evaluation value of control effect (from control value, lesion height) [3]: 5
- evaluation value of control effect (from control value, lesion area percentage) [1]: 4
- evaluation value of control effect (from control value, lesion height) [4]: 5
- evaluation value of control effect (from control value, number of lesions) [5]: 5
- evaluation value of control effect (from control value, number of lesions) [6]: 5
- evaluation value of control effect (from control value, number of lesions) [7]: 5
- evaluation value of control effect (from control value, lesion height) [8]: 5

Compound: CC(C)CC(C)c1sccc1N(C(=O)c1cccnc1C(F)F)C(=O)c1snc(Cl)c1Cl (stereo not shown) [18-2]
- evaluation value of control effect (from control value, lesion height) [3]: 5
- evaluation value of control effect (from control value, lesion area percentage) [1]: 5
- evaluation value of control effect (from control value, lesion height) [4]: 5
- evaluation value of control effect (from control value, number of lesions) [5]: 5
- evaluation value of control effect (from control value, number of lesions) [6]: 5
- evaluation value of control effect (from control value, number of lesions) [7]: 5
- evaluation value of control effect (from control value, lesion height) [8]: 5

Compound: Cc1nnsc1C(=O)N(C(=O)c1cccnc1C(F)F)c1ccsc1C(C)CC(C)C (stereo not shown) [18-8]
- evaluation value of control effect (from control value, lesion height) [3]: 5
- evaluation value of control effect (from control value, lesion area percentage) [1]: 5
- evaluation value of control effect (from control value, lesion height) [4]: 5
- evaluation value of control effect (from control value, number of lesions) [5]: 5
- evaluation value of control effect (from control value, number of lesions) [6]: 5
- evaluation value of control effect (from control value, number of lesions) [7]: 5
- evaluation value of control effect (from control value, lesion height) [8]: 5

Compound: CC1OC(C)(C)c2cccc(N(C(=O)c3cn(C)nc3C(F)F)C(=O)c3snc(Cl)c3Cl)c21 (stereo not shown) [25-10]
- evaluation value of control effect (from control value, lesion height) [3]: 5
- evaluation value of control effect (from control value, lesion area percentage) [1]: 4
- evaluation value of control effect (from control value, lesion height) [4]: 5
- evaluation value of control effect (from control value, number of lesions) [5]: 5
- evaluation value of control effect (from control value, number of lesions) [6]: 5
- evaluation value of control effect (from control value, number of lesions) [7]: 5
- evaluation value of control effect (from control value, lesion height) [8]: 5

Compound: CC1OC(C)(C)c2cccc(N(C(=O)c3cn(C)nc3C(F)F)C(=O)c3cccc4nnsc34)c21 (stereo not shown) [25-74]
- evaluation value of control effect (from control value, lesion height) [3]: 5
- evaluation value of control effect (from control value, lesion area percentage) [1]: 4
- evaluation value of control effect (from control value, lesion height) [4]: 5
- evaluation value of control effect (from control value, number of lesions) [5]: 5
- evaluation value of control effect (from control value, number of lesions) [6]: 5
- evaluation value of control effect (from control value, number of lesions) [7]: 5
- evaluation value of control effect (from control value, lesion height) [8]: 5

Compound: CC1OC(C)(C)c2cccc(N(C(=O)c3cn(C)nc3C(F)F)C(=O)c3onc(Cl)c3Cl)c21 (stereo not shown) [25-114]
- evaluation value of control effect (from control value, lesion height) [3]: 5
- evaluation value of control effect (from control value, lesion area percentage) [1]: 4
- evaluation value of control effect (from control value, lesion height) [4]: 5
- evaluation value of control effect (from control value, number of lesions) [5]: 5
- evaluation value of control effect (from control value, number of lesions) [6]: 5
- evaluation value of control effect (from control value, number of lesions) [7]: 5
- evaluation value of control effect (from control value, lesion height) [8]: 5

Compound: Cc1nn(C)c(Cl)c1C(=O)N(C(=O)c1scnc1C(F)F)c1cccc2c1C(C)OC2(C)C (stereo not shown) [25-119]
- evaluation value of control effect (from control value, number of lesions) [2]: 4

Compound: Cc1nn(C)c(Cl)c1C(=O)N(C(=O)c1scnc1C(F)(F)F)c1cccc2c1C(C)OC2(C)C (stereo not shown) [25-120]
- evaluation value of control effect (from control value, number of lesions) [2]: 4

Compound: Cc1nc(C(F)(F)F)c(C(=O)N(C(=O)c2c(C)nn(C)c2Cl)c2cccc3c2C(C)OC3(C)C)s1 (stereo not shown) [25-122]
- evaluation value of control effect (from control value, number of lesions) [2]: 4

Compound: Cc1nc(C(F)F)c(C(=O)N(C(=O)c2snc(Cl)c2Cl)c2cccc3c2C(C)OC3(C)C)s1 (stereo not shown) [26-14]
- evaluation value of control effect (from control value, lesion height) [3]: 5
- evaluation value of control effect (from control value, lesion area percentage) [1]: 4
- evaluation value of control effect (from control value, lesion height) [4]: 5
- evaluation value of control effect (from control value, number of lesions) [5]: 5
- evaluation value of control effect (from control value, number of lesions) [6]: 5
- evaluation value of control effect (from control value, number of lesions) [7]: 5
- evaluation value of control effect (from control value, lesion height) [8]: 5

Compound: Cc1nc(C(F)F)c(C(=O)N(C(=O)c2snnc2C(F)F)c2cccc3c2C(C)CC3(C)C)s1 (stereo not shown) [26-57]
- evaluation value of control effect (from control value, lesion height) [3]: 5
- evaluation value of control effect (from control value, lesion area percentage) [1]: 4
- evaluation value of control effect (from control value, lesion height) [4]: 5
- evaluation value of control effect (from control value, number of lesions) [5]: 5
- evaluation value of control effect (from control value, number of lesions) [6]: 5
- evaluation value of control effect (from control value, number of lesions) [7]: 5
- evaluation value of control effect (from control value, lesion height) [8]: 5

Compound: Cc1nc(C(F)F)c(C(=O)N(C(=O)c2cccc3nnsc23)c2cccc3c2C(C)OC3(C)C)s1 (stereo not shown) [26-62]
- evaluation value of control effect (from control value, lesion height) [3]: 5
- evaluation value of control effect (from control value, lesion area percentage) [1]: 4
- evaluation value of control effect (from control value, lesion height) [4]: 5
- evaluation value of control effect (from control value, number of lesions) [5]: 5
- evaluation value of control effect (from control value, number of lesions) [6]: 5
- evaluation value of control effect (from control value, number of lesions) [7]: 5
- evaluation value of control effect (from control value, lesion height) [8]: 5

Compound: Cc1nc(C(F)F)c(C(=O)N(C(=O)c2sc(C)nc2C(F)F)c2cccc3c2C(C)OC3(C)C)s1 (stereo not shown) [26-78]
- evaluation value of control effect (from control value, lesion height) [3]: 5
- evaluation value of control effect (from control value, lesion area percentage) [1]: 4
- evaluation value of control effect (from control value, lesion height) [4]: 5
- evaluation value of control effect (from control value, number of lesions) [5]: 5
- evaluation value of control effect (from control value, number of lesions) [6]: 5
- evaluation value of control effect (from control value, number of lesions) [7]: 5
- evaluation value of control effect (from control value, lesion height) [8]: 5

Compound: Cc1nc(C(F)F)c(C(=O)N(C(=O)c2scnc2C(F)(F)F)c2cccc3c2C(C)OC3(C)C)s1 (stereo not shown) [26-82]
- evaluation value of control effect (from control value, lesion height) [3]: 5
- evaluation value of control effect (from control value, lesion height) [4]: 5
- evaluation value of control effect (from control value, number of lesions) [2]: 4
- evaluation value of control effect (from control value, lesion height) [8]: 5

Compound: Cc1nc(C(F)F)c(C(=O)N(C(=O)c2cc(Cl)no2)c2cccc3c2C(C)OC3(C)C)s1 (stereo not shown) [26-91]
- evaluation value of control effect (from control value, lesion height) [3]: 5
- evaluation value of control effect (from control value, lesion area percentage) [1]: 4
- evaluation value of control effect (from control value, lesion height) [4]: 5
- evaluation value of control effect (from control value, number of lesions) [5]: 5
- evaluation value of control effect (from control value, number of lesions) [6]: 5
- evaluation value of control effect (from control value, number of lesions) [7]: 5
- evaluation value of control effect (from control value, lesion height) [8]: 5

Compound: CC1OC(C)(C)c2cccc(N(C(=O)c3cccnc3C(F)F)C(=O)c3snc(Cl)c3Cl)c21 (stereo not shown) [27-4]
- evaluation value of control effect (from control value, lesion height) [3]: 5
- evaluation value of control effect (from control value, lesion area percentage) [1]: 4
- evaluation value of control effect (from control value, lesion height) [4]: 5
- evaluation value of control effect (from control value, number of lesions) [5]: 5
- evaluation value of control effect (from control value, number of lesions) [6]: 5
- evaluation value of control effect (from control value, number of lesions) [7]: 5
- evaluation value of control effect (from control value, lesion height) [8]: 5

Compound: Cc1nnsc1C(=O)N(C(=O)c1cccnc1C(F)F)c1cccc2c1C(C)OC2(C)C (stereo not shown) [27-16]
- evaluation value of control effect (from control value, lesion height) [3]: 5
- evaluation value of control effect (from control value, lesion area percentage) [1]: 4
- evaluation value of control effect (from control value, lesion height) [4]: 5
- evaluation value of control effect (from control value, number of lesions) [5]: 5
- evaluation value of control effect (from control value, number of lesions) [6]: 5
- evaluation value of control effect (from control value, number of lesions) [7]: 5
- evaluation value of control effect (from control value, lesion height) [8]: 5
